# Reference: patent US8779188B2, “Process for the production of L-carnitine tartrate” (Lonza Ltd., priority 2010, dated 2014)
# Assays:
# [1] = Solubility of L-carnitine tartrate in ethanol in relation to the water content of the ethanol (FIG. 1); format: physicochemical; conditions: ethanol comprising less than 5% water / no or low amounts of water
# Text: Without being bound to theory, it is assumed that the strong improvements of the inventive process are associated with the low solubility of L-carnitine tartrate in ethanol comprising no water or only low amounts of water. […] The relationship of L-carnitine tartrate solubility to the water content of ethanol is shown in the scheme of FIG. 1. […] Thereby, high yields are obtained even when avoiding extreme temperatures for heating and cooling.
# [2] = cited from earlier work
solubility in ethanol [1],SMILES,hygroscopicity ([2]; pure carnitine),solubility in ethanol ([1]; L-tartrate),"solubility in ethanol ([1]; listed as carnitine tartrate, L-tartrate)","stability during storage ([2]; normal air moisture, disclosed in EP 0 434 088 A1)"
almost insoluble,"C[N+](C)(C)CC(O)CC(=O)[O-] [L-carnitine, 3-hydroxy-4-trimethylammonio-butanoate]",highly hygroscopic,–,–,–
–,"C[N+](C)(C)C[C@H](O)CC(=O)[O-].O=C(O)C(O)C(O)C(=O)O [L-carnitine tartrate, L-carnitine L-tartrate]",–,decreased dramatically,very low,stable
